Square brackets hold non-standard residues; d marks the D form. Ends that are not written are not given here.
Tested on: ARPE-19 cells
Assay: 4-HNE induced apoptosis of ARPE-19 cells (TUNEL staining)
Format: cell-based, human
Settings: 20 μM peptide pretreatment, 25 μM 4-HNE 24 h
Protocol: FIG. 6. The protective effect of the 6-mer dS on ARPE-19 cells against 4-HNE induced apoptosis. Cells were deprived of serum for 24 h and then pretreated with 20 μM 6-mer dS or solvent prior to exposed with 25 μM 4-HNE for additional 24 h. Apoptosis was determined by TUNEL staining (green dots) and counter-stained with Hoechst 33258 (blue dots). (A) Representative graphs from three independent experiments are shown. (B) The percentage of cell death was quantified by dividing the number of TUNEL-positive cells to a population of 2000 counted cells per condition. TUNEL, terminal deoxynucleotidyl transferase-mediated dUTP nick end-labeling. ^aP<0.00003 versus solvent-treated cells. ^bP<0.0006 versus solvent/4-HNE-treated cells.
Reference is made to FIG. 6, which depicts the protective effect of 6-mer dS or 6-mer dE on 4-hydroxy-2-nonenal (4-HNE) induced apoptosis of ARPE-19 cells. 4-hydroxy-2-nonenal (4-HNE) is a product of lipid oxidation, and is also considered as one of the most formidable reactive aldehydes capable of forming adduct with various cellular targets, particularly proteins involve in redox signaling.

Q: How did the “4-HNE induced apoptosis (TUNEL), in words” value turn out when “NH2-Ser-Leu-Gly-Ala-Glu-Gln-COOH ([dS]LGAEQ; not fully specified (N-terminus, C-terminus); printed as NH2-Ser-Leu-Gly-Ala-Glu-Gln-COOH) [Peptide 6-mer]” was run?
A: 6-mer dS being more effective than the 6-mer

From patent US12221494B2, “Short synthetic peptides and their uses for treating retinal degenerative diseases and/or tissue injuries” (MacKay Memorial Hospital, priority 2019, dated 2025)
